Patent US12534457B2, “Heteroaryl derivative compounds, and uses thereof” (Voronoi Inc., priority 2021, dated 2026)

Key:
[1] = test system: Ba/F3 cells expressing EGFR Del19/C797S (EGFR DC); test: Proliferation inhibitory activity, Ba/F3 cells expressing EGFR Del19/C797S (CellTiter-Glo); format: cell-based; details: Mus musculus, BaF3, 72 hours of compound treatment
Procedure, shortened: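 Viability after 72 h of compound exposure was measured by luminescence (CellTiter-Glo) in Ba/F3 lines transduced with mutant EGFR. Final concentrations spanned 0.2 nM–5 μM over 12 threefold steps. Growth relative to untreated control gave GI50 values; each test was run three times.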

[2] = test system: Ba/F3 cells expressing EGFR L858R/C797S (EGFR LC); test: Proliferation inhibitory activity, Ba/F3 cells expressing EGFR L858R/C797S (CellTiter-Glo); format: cell-based; details: Mus musculus, BaF3, 72 hours of compound treatment
Description: The following experiments were performed to evaluate the inhibitory activity of the compounds according to the present disclosure on Ba/F3 proliferation expressing EGFR C797S, L861Q, G719A, S768I, L718Q, and/or G724S mutations.
For Ba/F3 cells, RPMI-1640 containing 10% FBS and 5 ng/ml IL-3 (R&D Systems) was used. Transduced Ba/F3 cells were cultured after adding 1 μg/ml puromycin (Invitrogen) to the same medium.
At 24 hours before treatment with the compounds, 3000 to 5000 cells were aliquoted into each well of a white clear bottom 96 well plate (Corning). The compounds were diluted in dimethyl sulfoxide (3 times dilution, 12 concentrations in total), and injected in an amount of 1 μl so that the final concentration was 0.2 nM to 5 uM. For measurement of living cells, after 72 hours of compound treatment, the cells were stored at room temperature for 10 min using CellTiter-Glo luminescentcell-viability reagent (Promega), and then luminescence intensity was measured using a reader (SynergyNeo, Biotek). Each test was repeated three times. Result values were calculated as the cell growth rate (%) compared to the control. The graphs were created using GraphPad Prism version 8.3.0 program and the GI50 values were calculated.

GI50 [1] [nM] | GI50 [2] [nM] | SMILES
< 50 | < 50 | COc1cc(N2CCC(N3CCN(C)CC3)CC2)ccc1Nc1cc(N2OCC[C@@H]2c2ccc(Cl)c(F)c2)ncn1 [Example 129, (R)-6-(3-(4-chloro-3-fluorophenyl)isoxazolidin-2-yl)-N-(2-methoxy-4-(4-(4-methylpiperazin-1-yl)piperidin-1-yl)phenyl)pyrimidin-4-amine]
< 50 | < 50 | COc1cc(N2CCC(N3CCN(C)CC3)CC2)c(Cl)cc1Nc1cc(N2OCC[C@@H]2c2ccccc2)ncn1 [Example 132, (R)—N-(5-chloro-2-methoxy-4-(4-(4-methylpiperazin-1-yl)piperidin-1-yl)phenyl)-6-(3-phenylisoxazolidin-2-yl)pyrimidin-4-amine]
50 to 500 | 50 to 500 | COc1cc(N2CCC(N3CCC(N(C)C)CC3)CC2)c(-c2cnn(C)c2)cc1Nc1cc(N2OCC[C@@H]2c2cc(F)cc(F)c2)ncn1 [Example 10, (R)-1′-(4-((6-(3-(3,5-difluorophenyl)isoxazolidin-2-yl)pyrimidin-4-yl)amino)-5-methoxy-2-(1-methyl-1H-pyrazol-4-yl)phenyl)-N,N-dimethyl-[1,4′-bipiperidin]-4-amine]
< 50 | < 50 | Cc1cc(Nc2cc(N3OCC[C@@H]3c3ccc(F)cc3F)ncn2)ccc1N1CCC(N2CCN(C)CC2)CC1 [Example 104, (R)-6-(3-(2,4-difluorophenyl)isoxazolidin-2-yl)-N-(3-methyl-4-(4-(4-methylpiperazin-1-yl)piperidin-1-yl)phenyl)pyrimidin-4-amine]
< 50 | < 50 | COc1cc(N2CCC(N3CCN(C)CC3)CC2)c(-c2cnn(C)c2)cc1Nc1cc(N2OCC[C@@H]2c2cc(F)cc(F)c2)ncn1 [Example 8, (R)-6-(3-(3,5-difluorophenyl)isoxazolidin-2-yl)-N-(2-methoxy-5-(1-methyl-1H-pyrazol-4-yl)-4-(4-(4-methylpiperazin-1-yl)piperidin-1-yl)phenyl)pyrimidin-4-amine]
< 50 | < 50 | CN1CCN(c2ccc(Nc3cc(N4OCC[C@@H]4c4ccccc4)ncn3)cc2)CC1 [Example 1, (R)—N-(4-(4-methylpiperazin-1-yl)phenyl)-6-(3-phenylisoxazolidin-2-yl)pyrimidin-4-amine]
< 50 | < 50 | COc1cc(N2CCC(N3CCN(C)CC3)CC2)ccc1Nc1cc(N2OCC[C@@H]2c2ccccc2)ncn1 [Example 5, (R)—N-(2-methoxy-4-(4-(4-methylpiperazin-1-yl)piperidin-1-yl)phenyl)-6-(3-phenylisoxazolidin-2-yl)pyrimidin-4-amine]
< 50 | < 50 | CN1CCN(c2cc(Nc3cc(N4OCC[C@@H]4c4cc(F)cc(F)c4)ncn3)cc(C(C)(C)C#N)c2)CC1 [Example 15, (R)-2-(3-((6-(3-(3,5-difluorophenyl)isoxazolidin-2-yl)pyrimidin-4-yl)amino)-5-(4-methylpiperazin-1-yl)phenyl)-2-methylpropanenitrile]
50 to 500 | 50 to 500 | CN1CCN(C2CCN(c3cc(Nc4cc(N5OCC[C@@H]5c5cc(F)cc(F)c5)ncn4)cc(S(C)(=O)=O)c3)CC2)CC1 [Example 11, (R)-6-(3-(3,5-difluorophenyl)isoxazolidin-2-yl)-N-(3-(4-(4-methylpiperazin-1-yl)piperidin-1-yl)-5-(methylsulfonyl)phenyl)pyrimidin-4-amine]
< 50 | < 50 | COc1cc(Nc2cc(N3OCC[C@@H]3c3cccc(F)c3F)ncn2)ccc1N1CCC(N2CCN(C)CC2)CC1 [Example 128, (R)-6-(3-(2,3-difluorophenyl)isoxazolidin-2-yl)-N-(3-methoxy-4-(4-(4-methylpiperazin-1-yl)piperidin-1-yl)phenyl)pyrimidin-4-amine]
< 50 | < 50 | CN(C)C1CCN(C2CCN(c3ccc(Nc4cc(N5OCC[C@@H]5c5ccccc5)ncn4)cc3)CC2)CC1 [Example 84, (R)—N,N-dimethyl-1′-(4-((6-(3-phenylisoxazolidin-2-yl)pyrimidin-4-yl)amino)phenyl)-[1,4′-bipiperidin]-4-amine]
50 to 500 | 50 to 500 | CN1CCN(c2cc(Nc3cc(N4OCC[C@@H]4c4cc(F)cc(F)c4)ncn3)cc(S(C)(=O)=O)c2)CC1 [Example 13, (R)-6-(3-(3,5-difluorophenyl)isoxazolidin-2-yl)-N-(3-(4-methylpiperazin-1-yl)-5-(methylsulfonyl)phenyl)pyrimidin-4-amine]
< 50 |  | CN1CCN(c2c(-c3cnn(C)c3)cc(Nc3cc(N4OCC[C@@H]4c4ccccc4)ncn3)c3c2CCO3)CC1 [Example 162, (R)—N-(5-(1-methyl-1H-pyrazol-4-yl)-4-(4-methylpiperazin-1-yl)-2,3-dihydrobenzofuran-7-yl)-6-(3-phenylisoxazolidin-2-yl)pyrimidin-4-amine]
< 50 |  | COc1cc(N2CCC(N3CC4(CN(C)C4)C3)CC2)ccc1Nc1cc(N2OCC[C@@H]2c2cccc(F)c2F)ncn1 [Example 211, (R)-6-(3-(2,3-difluorophenyl)isoxazolidin-2-yl)-N-(2-methoxy-4-(4-(6-methyl-2,6-diazaspiro[3.3]heptan-2-yl)piperidin-1-yl)phenyl)pyrimidin-4-amine]
< 50 |  | CC(C)[C@H]1CCON1c1cc(Nc2ccc(N3CCN(C)CC3)cc2)ncn1 [Example 235, (R)-6-(3-isopropylisoxazolidin-2-yl)-N-(4-(4-methylpiperazin-1-yl)phenyl)pyrimidin-4-amine]
< 50 |  | COc1cc(N2CCC(N3CCN(C)CC3)C(F)C2)ccc1Nc1cc(N2OCC[C@@H]2c2cccc(F)c2F)ncn1 (stereo partly drawn) [Example 140, 6-((R)-3-(2,3-difluorophenyl)isoxazolidin-2-yl)-N-(4-(3-fluoro-4-(4-methylpiperazin-1-yl)piperidin-1-yl)-2-methoxyphenyl)pyrimidin-4-amine]
< 50 |  | Cc1cc(Nc2cc(N3OCC[C@@H]3c3ccccc3)ncn2)ccc1N1CCC(N2CCN(C)CC2)CC1 [Example 53, (R)—N-(3-methyl-4-(4-(4-methylpiperazin-1-yl)piperidin-1-yl)phenyl)-6-(3-phenylisoxazolidin-2-yl)pyrimidin-4-amine]
50 to 500 |  | COc1cc(N2CCC(N3CCN(C)CC3)CC2)ccc1Nc1cc(N2OCC[C@@H]2c2cccc(C(=O)OC(C)C)c2)ncn1 [Example 100, isopropyl (R)-3-(2-(6-((2-methoxy-4-(4-(4-methylpiperazin-1-yl)piperidin-1-yl)phenyl)amino)pyrimidin-4-yl)isoxazolidin-3-yl)benzoate]
< 50 |  | COc1cc(N2CCC3(CC2)CCN(C(C)(C)CF)CC3)c(-c2cnn(C)c2)cc1Nc1cc(N2OCC[C@@H]2c2cccc(F)c2F)ncn1 [Example 195, (R)-6-(3-(2,3-difluorophenyl)isoxazolidin-2-yl)-N-(4-(9-(1-fluoro-2-methylpropan-2-yl)-3,9-diazaspiro[5.5]undecan-3-yl)-2-methoxy-5-(1-methyl-1H-pyrazol-4-yl)phenyl)pyrimidin-4-amine]
50 to 500 |  | CN1CCN(C2CCN(c3ccc(Nc4cc(N5OCC[C@@H]5c5cc(F)cc(F)c5)ncn4)cc3S(C)(=O)=O)CC2)CC1 [Example 24, (R)-6-(3-(3,5-difluorophenyl)isoxazolidin-2-yl)-N-(4-(4-(4-methylpiperazin-1-yl)piperidin-1-yl)-3-(methylsulfonyl)phenyl)pyrimidin-4-amine]
< 50 |  | COc1cc(N2CCSCC2)ccc1Nc1cc(N2OCC[C@@H]2c2ccccc2)ncn1 [Example 66, (R)—N-(2-methoxy-4-thiomorpholinophenyl)-6-(3-phenylisoxazolidin-2-yl)pyrimidin-4-amine]
< 50 |  | COc1cc(Nc2cc(N3OCC[C@@H]3c3ccc(F)cc3)ncn2)ccc1N1CCC(N2CCN(C)CC2)CC1 [Example 96, (R)-6-(3-(4-fluorophenyl)isoxazolidin-2-yl)-N-(3-methoxy-4-(4-(4-methylpiperazin-1-yl)piperidin-1-yl)phenyl)pyrimidin-4-amine]
50 to 500 |  | COc1cc(N2CCC(N3CCN(C)CC3)CC2)ccc1Nc1cc(N2OCC[C@@H]2c2cccc(C(F)F)c2)ncn1 [Example 184, (R)-6-(3-(3-(difluoromethyl)phenyl)isoxazolidin-2-yl)-N-(2-methoxy-4-(4-(4-methylpiperazin-1-yl)piperidin-1-yl)phenyl)pyrimidin-4-amine]
50 to 500 |  | COc1cc(N2CCC(N3CCN(C)CC3)CC2)ccc1Nc1cc(N2OCC[C@@H]2c2cccc(N(C)C)c2)ncn1 [Example 131, (R)-6-(3-(3-(dimethylamino)phenyl)isoxazolidin-2-yl)-N-(2-methoxy-4-(4-(4-methylpiperazin-1-yl)piperidin-1-yl)phenyl)pyrimidin-4-amine]
< 50 |  | COc1cc(N2CCC(N3CCC(N(C)C)CC3)CC2)ccc1Nc1cc(N2OCC[C@@H]2c2ccccc2)ncn1 [Example 115, (R)-1′-(3-methoxy-4-((6-(3-phenylisoxazolidin-2-yl)pyrimidin-4-yl)amino)phenyl)-N,N-dimethyl-[1,4′-bipiperidin]-4-amine]
